Reference: patent US12558348B2, “Bioactive phytochemicals” (Phytoquest Limited, priority 2019, dated 2026)
Marks after values point to notes of the source that are not given here.

Legend:
THP-1 cells = experiment: Viability of THP-1 cells (trypan blue uptake or MTT dye conversion); type: cell-based, human
IL-12 = IL-12 ELISA in LPS stimulated THP-1 cells; type: cell-based, human; conditions: for % reduction in IL-12 levels: vs LPS control
Procedure: (§1) The cells in an 80% confluence culture flask were aspirated and centrifuged at 1500 rpm for 5 mins. The cell pellet was then resuspended in 1 ml of RPMI complete media and 1×10^5 cells/well seeded to each well of the 96 well microtiter plate. After 24 hrs incubation, PMA (10 ng/ml) was added to the 96 well plate to differentiate THP-1 cells to determine the TNF-α production, THP-1 cells were pretreated for 1 hr with idoBR1 or cucumber extract-Q-actin (batch no. […] Post incubation, the cell supernatant from each of the wells was aspirated into sterile micro centrifuge tubes and centrifuged at 1000 rpm for 2-3 mins. The cell supernatant was then used for evaluation of presence of cytokines using ELISA.
(§2) ELISA plates coated with antibodies for IL-12, IL-1β, or IL-10 (R&D Systems, USA) were used for the following study. To each well 50 μL of Assay Diluent RD1F was added after mixing well. 200 μL of sample (idoBR1 or extract), or control per well was added and covered with an adhesive strip. Following incubation for 2 hours at room temperature each well was aspirated and washed 4 times with Wash Buffer (400 μl). After the last wash, any remaining Wash Buffer was removed by aspirating or decanting. The plates were inverted and blotted against clean paper towels. To each well 200 μl of appropriate human conjugate was added and these then covered with a new adhesive strip and incubated for 1 hour at room temperature. The aspiration/wash was then repeated. 200 μL of Substrate Solution was then added to each well and further incubated for 20 minutes at room temperature protected from light. 50 μL of Stop Solution was added to each well. The colour in the wells was changed from blue to yellow. OD was measured within 30 minutes at 450 nm.

TNF-α = TNF-α production by LPS-stimulated BV-2 microglial cells; type: cell-based, murine; conditions: 24 hours
Procedure: (§3) idoBR1 was used in cell cultures of murine microglial cell line BV-2 at 0, 20, 40 and 80 μg/ml plus and minus sub-optimal LPS. Production of TNF-α and nitrite was measured after 24 hours.

IL-10 = IL-10 ELISA in LPS stimulated THP-1 cells; type: cell-based, human; conditions: for Fold increase in IL-10 levels: vs control = 1.00
Procedure: as §1, §2

[1] = system: murine microglial cell line BV-2; experiment: Nitrite production by LPS-stimulated BV-2 microglial cells; type: cell-based; conditions: 24 hours
Procedure: as §3

phosphorylated p38 = experiment: Western blot of phosphorylated p38 in LPS-stimulated THP-1 cells; type: cell-based, human; conditions: vs LPS = 1.00
Procedure: (§4) THP-1 cells were cultured in RPMI media supplemented with mercaptoethanol & glutamine to get 80% confluence in culture flasks, then they were aspirated and centrifuged at 1500 rpm for 5 mins. The cell pellet was then resuspended in 1 ml of RPMI complete media and counted conventionally using a hemocytometer. The cells (5×106) were incubated with PMA (10 ng/ml) in separate dishes to differentiate THP-1 cells. To determine the protein expression p38 & p42/44, THP-1 cells were pre-treated for 1 hr with idoBR1-100 μg/ml & 50 μg/ml and cucumber extract (Q-actin batch no. B17CF001)—200 μg/ml & 100 μg/ml, followed by 2 hr LPS (1 μg/ml) stimulation. Post incubation, the cells were harvested and whole protein was isolated.
(§5) Cell pellets were lysed, and the protein concentration was determined using the Bio-Rad protein determination assay (Bio-Rad). Total cell proteins were subjected to 8% polyacrylamide SDS gel electrophoresis followed by transfer onto polyvinylidene difluoride membranes (Thermoscientific). The membranes were probed with either mouse anti-phospho-p38 mAb (Thermoscientific) or mouse anti-phospho-p42/44 mAb (Thermoscientific), followed by horseradish peroxidase-conjugated goat anti-mouse polyclonal antibodies (Thermoscientific). All immunoblots were visualized by ECL (Amersham Biosciences).

phosphorylated ERK 42/44 = experiment: Western blot of phosphorylated ERK p42/44 in LPS-stimulated THP-1 cells; type: cell-based, human; conditions: vs LPS = 1.00
Procedure: as §4, §5

[2] = system: sialidase (including NanH from T. forsythia); experiment: Sialidase assay with methylumbelliferyl-N-acetylneuraminic acid; type: biochemical
Procedure: Sialidase assays used 2.8 mM and 0.28 mM inhibitor (or water without inhibitor) and 2.5 nM sialidase (including NanH from T. forsythia) incubated in the presence of 0.1 mM methylumbelliferyl-N-acetyineuraminic acid, pH 7.2 in 20 mM sodium phosphate buffer. Reactions were stopped at 30 seconds and 60 seconds via addition of pH 10.5 60 mM sodium carbonate buffer. Release of fluorogenic methylumbelliferone (MU) was quantified by measuring fluorescence emission at 450 nm, excitation 350 nm. Percentage sialidase activity was expressed as the change in fluorescence between 30 seconds and 60 seconds compared to that of a reaction without inhibitor. Reactions were carried out in triplicate.

O=C(O)[C@@H]1NC[C@H](O)[C@@H](O)[C@@H]1O [idoBR1, (2R,3R,4R,5S)-3,4,5-trihydroxypiperidine-2-carboxylic acid]
viability of THP-1 cells (THP-1 cells): did not significantly alter | IL-12 (IL-12; 12.5 μg/mL): 104.23 pg/mL | % reduction in IL-12 levels (IL-12; 12.5 μg/mL): 11.22% | IL-12 (IL-12; 25 μg/mL): 97.37 pg/mL | % reduction in IL-12 levels (IL-12; 25 μg/mL): 17.07% | IL-12 (IL-12; 50 μg/mL): 92.89 pg/mL | % reduction in IL-12 levels (IL-12; 50 μg/mL): 20.88% | IL-12 (IL-12; 100 μg/mL): 88.60 pg/mL | % reduction in IL-12 levels (IL-12; 100 μg/mL): 24.53% | TNF-α production (TNF-α; 20 μg/ml + LPS): 500** pg/ml | TNF-α production (TNF-α; 40 μg/ml + LPS): 470** pg/ml | TNF-α production (TNF-α; 80 μg/ml + LPS): 410*** pg/ml | IL-10 (IL-10; 12.5 μg/mL): 19.02 pg/mL | Fold increase in IL-10 levels (IL-10; 12.5 μg/mL): 1.34 fold | IL-10 (IL-10; 25 μg/mL): 29.34 pg/mL | Fold increase in IL-10 levels (IL-10; 25 μg/mL): 2.07 fold | IL-10 (IL-10; 50 μg/mL): 37.22 pg/mL | Fold increase in IL-10 levels (IL-10; 50 μg/mL): 2.63 fold | IL-10 (IL-10; 100 μg/mL): 43.08 pg/mL | Fold increase in IL-10 levels (IL-10; 100 μg/mL): 3.04 fold | Nitrite production ([1]; 20 μg/ml + LPS): 11* μM | Nitrite production ([1]; 40 μg/ml + LPS): 9** μM | Nitrite production ([1]; 80 μg/ml + LPS): 8** μM | Relative expression of p38 (phosphorylated p38; 50 μg/ml): 0.88 | Relative expression of p38 (phosphorylated p38; 100 μg/ml): 0.80 | Relative expression of p42/44 (phosphorylated ERK 42/44; 50 μg/ml): 0.80 | Relative expression of p42/44 (phosphorylated ERK 42/44; 100 μg/ml): 0.76 | inhibition of the sialidase ([2]; 0.28 mM inhibitor): 42% | inhibition of the sialidase ([2]; 2.8 mM inhibitor): 36%
